Measured values taken from article PMC11204923, “Marine Cytotoxin Santacruzamate A Derivatives as Potent HDAC1-3 Inhibitors and Their Synergistic Anti-Leukemia Effects with Venetoclax” (Marine Drugs, 2024).
Values joined by “and” are separate entries in the source; they are usually repeats but may differ in a detail not shown here. Equal entries are not always repeated.

Experiments:
HDAC9 = target: T1, HDAC9 (Homo sapiens, UniProt Q9UKV0); assay: In vitro HDAC inhibition fluorescence assay, HDAC9; format: biochemical
T1 construct: purchased BPS Bioscience
Procedure: (§1) All of the HDAC enzymes were purchased from BPS Bioscience. In vitro HDAC inhibition assays were conducted as previously described. In brief, 20 μL of recombinant HDAC enzyme solution (HDAC1-9, 11) was mixed with various concentrations of the tested compound (20 μL). The mixture was incubated at 37 °C for 1 h, and then, 10 μL of fluorogenic substrate (Boc-Lys (acetyl)-AMC for HDAC1, 2, 3 and 6; Boc-Lys (trifluoroacetyl)AMC for HDAC4, 5, 7, 8, 9 and 11) was added to achieve a final concentration of 50 μM. After incubation at 37 °C for 2 h, the catalysis was stopped by the addition of 10 μL of developer containing 30 mg/mL trypsin and 6 μM trichostatin A (TSA). Then, 30 min later, the fluorescence intensity was measured using a microplate reader at excitation and emission wavelengths of 360 and 460 nm, respectively. The inhibition ratios were calculated from the fluorescence intensity readings of tested wells relative to those of control wells, and the IC50 curves and values were determined by GraphPad Prism 6.0, using the “log(inhibitor) vs. normalized response-variable slope” function.

HDAC7 = target: T2, HDAC7 (Homo sapiens, UniProt Q8WUI4); assay: In vitro HDAC inhibition fluorescence assay, HDAC7; format: biochemical
T2 construct: purchased BPS Bioscience
T2 sequence (Q8WUI4 1-952): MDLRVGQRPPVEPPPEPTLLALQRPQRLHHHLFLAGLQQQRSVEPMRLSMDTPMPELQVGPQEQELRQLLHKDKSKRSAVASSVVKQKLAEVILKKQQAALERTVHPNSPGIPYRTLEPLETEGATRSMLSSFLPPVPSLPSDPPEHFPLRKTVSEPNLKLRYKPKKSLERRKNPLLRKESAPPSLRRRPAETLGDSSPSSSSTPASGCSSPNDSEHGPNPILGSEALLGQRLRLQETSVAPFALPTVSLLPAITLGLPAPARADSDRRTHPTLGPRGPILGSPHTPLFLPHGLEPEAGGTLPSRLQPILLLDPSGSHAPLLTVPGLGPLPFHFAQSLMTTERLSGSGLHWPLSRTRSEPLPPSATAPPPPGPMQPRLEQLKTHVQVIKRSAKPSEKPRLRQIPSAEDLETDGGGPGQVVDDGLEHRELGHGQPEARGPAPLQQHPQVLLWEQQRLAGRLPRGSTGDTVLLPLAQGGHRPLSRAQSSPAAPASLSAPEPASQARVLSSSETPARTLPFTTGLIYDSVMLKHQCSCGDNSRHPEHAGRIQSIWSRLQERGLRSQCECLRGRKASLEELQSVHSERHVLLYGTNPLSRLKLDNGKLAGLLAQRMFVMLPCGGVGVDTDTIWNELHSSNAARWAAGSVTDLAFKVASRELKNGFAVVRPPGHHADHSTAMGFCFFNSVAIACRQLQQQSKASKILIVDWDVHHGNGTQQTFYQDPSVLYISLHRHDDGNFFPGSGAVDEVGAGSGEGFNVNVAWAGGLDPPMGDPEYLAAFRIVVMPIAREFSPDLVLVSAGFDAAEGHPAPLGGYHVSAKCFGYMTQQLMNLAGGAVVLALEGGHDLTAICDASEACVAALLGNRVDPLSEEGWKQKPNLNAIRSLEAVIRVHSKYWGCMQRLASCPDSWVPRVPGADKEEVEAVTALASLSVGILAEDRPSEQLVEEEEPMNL
Procedure: as §1

HDAC11 = target: T3, HDAC11 (Homo sapiens, UniProt Q96DB2); assay: In vitro HDAC inhibition fluorescence assay, HDAC11; format: biochemical
T3 construct: purchased BPS Bioscience
T3 sequence (Q96DB2 1-347): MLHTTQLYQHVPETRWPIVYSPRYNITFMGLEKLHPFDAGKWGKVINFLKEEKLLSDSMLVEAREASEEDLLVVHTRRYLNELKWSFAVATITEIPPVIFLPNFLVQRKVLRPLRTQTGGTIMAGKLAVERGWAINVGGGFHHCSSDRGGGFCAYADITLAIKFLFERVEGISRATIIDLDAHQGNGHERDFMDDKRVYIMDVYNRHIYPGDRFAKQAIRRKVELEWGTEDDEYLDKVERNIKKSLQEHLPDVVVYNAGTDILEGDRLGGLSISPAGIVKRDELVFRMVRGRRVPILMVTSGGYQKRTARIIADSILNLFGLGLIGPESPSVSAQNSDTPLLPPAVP
Procedure: as §1

HDAC3 = target: T4, HDAC3 (Homo sapiens, UniProt O15379); assay: In vitro HDAC inhibition fluorescence assay, HDAC3; format: biochemical
T4 construct: purchased BPS Bioscience
Procedure: All of the HDAC enzymes were purchased from BPS Bioscience. In vitro HDAC inhibition assays were conducted as previously described. In brief, 20 μL of recombinant HDAC enzyme solution (HDAC1-9, 11) was mixed with various concentrations of the tested compound (20 μL). […] After incubation at 37 °C for 2 h, the catalysis was stopped by the addition of 10 μL of developer containing 30 mg/mL trypsin and 6 μM trichostatin A (TSA). Then, 30 min later, the fluorescence intensity was measured using a microplate reader at excitation and emission wavelengths of 360 and 460 nm, respectively. The inhibition ratios were calculated from the fluorescence intensity readings of tested wells relative to those of control wells, and the IC50 curves and values were determined by GraphPad Prism 6.0, using the “log(inhibitor) vs. normalized response-variable slope” function.

HL-60 cells = assay: Cell viability assay (resazurin), HL-60; format: cell-based; conditions: Homo sapiens, HL-60, 72 h; read-out: IC50 anti-proliferative activity HL-60
Procedure: The AML cell lines MV4-11, THP-1, KASUMI-1 and HL-60 were purchased from Procell Life Science & Technology Co., Ltd. (Wuhan, China). THP-1 and KASUMI-1 were cultured in RPMI-1640 complete medium containing 10% fetal bovine serum and 1% penicillin and streptomycin. MV4-11 was cultured in IMDM complete medium containing 10% fetal bovine serum and 1% penicillin and streptomycin. HL-60 was cultured in IMDM complete medium containing 20% fetal bovine serum and 1% penicillin and streptomycin. All cell lines were cultured in an incubator with humidity set at 95%, temperature at 37 °C and 5% CO2.
MV4-11, THP-1, KASUMI-1 and HL-60 cells were plated in 96-well transparent plates (10,000 to 15,000 cells/100 μL) and after incubation overnight, cells were treated with gradient-diluted inhibitors with several concentrations. After the cells were incubated with inhibitors for 72 h, 1 mg/mL of Resazurin (Sigma-Aldrich, Saint Louis, MO, USA) was added (working concentration was 0.1 mg/mL). After incubation at 37 °C for about 3 h, the fluorescence intensity of […] was measured at 560 nm/590 nm (excitation/emission) with a Spectra Max i3 Microplate Reader, and the cell viability was determined. The IC50 curve was drawn using GraphPad Prism 9.5 software.

HDAC4 = target: T5, HDAC4 (Homo sapiens, UniProt P56524); assay: In vitro HDAC inhibition fluorescence assay, HDAC4; format: biochemical
T5 construct: purchased BPS Bioscience
Procedure: as §1

T4 sequence (O15379 whole entry): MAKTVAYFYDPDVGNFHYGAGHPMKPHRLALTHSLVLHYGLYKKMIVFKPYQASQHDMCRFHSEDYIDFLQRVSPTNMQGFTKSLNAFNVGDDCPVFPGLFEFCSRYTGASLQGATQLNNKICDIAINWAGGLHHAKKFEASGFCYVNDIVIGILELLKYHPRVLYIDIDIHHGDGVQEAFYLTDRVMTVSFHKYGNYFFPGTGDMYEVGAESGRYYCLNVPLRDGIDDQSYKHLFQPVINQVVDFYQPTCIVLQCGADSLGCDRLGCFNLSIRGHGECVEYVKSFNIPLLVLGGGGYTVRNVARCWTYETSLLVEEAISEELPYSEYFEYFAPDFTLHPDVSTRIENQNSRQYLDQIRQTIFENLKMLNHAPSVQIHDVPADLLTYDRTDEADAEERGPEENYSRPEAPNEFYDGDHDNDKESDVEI
T4 sequence (Q9Y618 395-489 partner limits assumed): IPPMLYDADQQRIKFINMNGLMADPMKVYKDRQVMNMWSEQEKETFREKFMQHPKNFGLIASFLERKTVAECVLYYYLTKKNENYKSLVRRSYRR
T5 sequence (P56524 whole entry): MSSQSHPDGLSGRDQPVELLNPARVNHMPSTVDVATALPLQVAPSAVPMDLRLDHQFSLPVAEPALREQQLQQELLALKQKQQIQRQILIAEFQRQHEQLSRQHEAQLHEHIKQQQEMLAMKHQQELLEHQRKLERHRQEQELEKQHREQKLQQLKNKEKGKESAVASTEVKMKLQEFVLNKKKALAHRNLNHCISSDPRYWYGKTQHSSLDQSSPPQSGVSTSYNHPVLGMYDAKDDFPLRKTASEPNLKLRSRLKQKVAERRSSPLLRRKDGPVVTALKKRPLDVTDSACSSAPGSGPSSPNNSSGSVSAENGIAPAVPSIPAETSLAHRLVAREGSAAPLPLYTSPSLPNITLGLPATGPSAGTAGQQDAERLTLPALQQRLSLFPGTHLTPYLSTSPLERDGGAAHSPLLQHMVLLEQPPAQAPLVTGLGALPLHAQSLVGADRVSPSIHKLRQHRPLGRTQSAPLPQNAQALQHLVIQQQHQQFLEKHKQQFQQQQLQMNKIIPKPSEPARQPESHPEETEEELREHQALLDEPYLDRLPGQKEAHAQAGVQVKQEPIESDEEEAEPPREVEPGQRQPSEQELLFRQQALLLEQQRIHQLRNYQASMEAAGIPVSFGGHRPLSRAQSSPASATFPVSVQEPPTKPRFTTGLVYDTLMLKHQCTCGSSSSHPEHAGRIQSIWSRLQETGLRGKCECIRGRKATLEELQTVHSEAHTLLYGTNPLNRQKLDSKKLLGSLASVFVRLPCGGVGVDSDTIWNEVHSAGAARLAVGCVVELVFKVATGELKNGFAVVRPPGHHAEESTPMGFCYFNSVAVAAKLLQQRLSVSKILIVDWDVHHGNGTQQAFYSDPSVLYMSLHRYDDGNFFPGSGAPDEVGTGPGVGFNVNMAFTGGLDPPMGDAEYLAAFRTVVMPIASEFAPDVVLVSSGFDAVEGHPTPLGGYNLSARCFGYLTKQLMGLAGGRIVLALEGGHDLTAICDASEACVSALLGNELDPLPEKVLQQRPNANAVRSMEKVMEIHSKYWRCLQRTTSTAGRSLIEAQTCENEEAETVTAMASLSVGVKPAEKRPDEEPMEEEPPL
T1 sequence (Q9UKV0 whole entry): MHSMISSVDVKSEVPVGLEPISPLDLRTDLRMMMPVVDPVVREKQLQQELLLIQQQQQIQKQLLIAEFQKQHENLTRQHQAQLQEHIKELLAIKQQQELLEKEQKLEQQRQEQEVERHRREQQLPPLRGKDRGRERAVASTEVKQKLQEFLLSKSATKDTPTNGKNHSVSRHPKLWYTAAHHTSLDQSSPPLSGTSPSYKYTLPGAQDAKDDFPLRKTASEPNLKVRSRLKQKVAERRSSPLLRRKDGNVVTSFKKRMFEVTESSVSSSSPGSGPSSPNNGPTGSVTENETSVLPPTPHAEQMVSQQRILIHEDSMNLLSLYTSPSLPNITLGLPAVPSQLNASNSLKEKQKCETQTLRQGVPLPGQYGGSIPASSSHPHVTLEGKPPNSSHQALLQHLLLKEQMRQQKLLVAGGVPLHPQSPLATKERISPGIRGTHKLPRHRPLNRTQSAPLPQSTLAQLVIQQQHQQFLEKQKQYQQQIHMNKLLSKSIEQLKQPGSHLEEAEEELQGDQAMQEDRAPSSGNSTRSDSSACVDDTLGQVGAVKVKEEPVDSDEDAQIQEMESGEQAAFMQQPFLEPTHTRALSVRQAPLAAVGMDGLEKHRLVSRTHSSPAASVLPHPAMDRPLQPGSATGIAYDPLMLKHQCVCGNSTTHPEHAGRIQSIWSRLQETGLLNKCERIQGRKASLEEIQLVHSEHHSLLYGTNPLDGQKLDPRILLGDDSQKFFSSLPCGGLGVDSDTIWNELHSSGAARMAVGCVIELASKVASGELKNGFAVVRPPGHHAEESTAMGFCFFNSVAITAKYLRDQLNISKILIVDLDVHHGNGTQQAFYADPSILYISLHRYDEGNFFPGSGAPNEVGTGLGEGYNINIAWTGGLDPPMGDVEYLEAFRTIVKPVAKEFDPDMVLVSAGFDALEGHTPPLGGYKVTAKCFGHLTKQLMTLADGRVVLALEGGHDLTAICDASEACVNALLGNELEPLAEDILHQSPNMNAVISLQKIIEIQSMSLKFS

## CCCNNC(=O)C=Cc1ccc(CNCCc2ccccc2)cc1 [Compound 25c, 3-(4-((Phenethylamino)methyl)phenyl)-N′-propylacrylohydrazide]
HDAC9
  IC50: > 10000 nM
HDAC7
  IC50: > 10000 nM
HDAC11
  IC50: > 10000 nM
HDAC3
  IC50: 2.4 nM and 2.39 nM and 2.3 nM
HDAC3; 10 nM, read-out: Inhibition Rate of HDAC3 (%)
  inhibition at 0.01 µM: > 95%
HDAC3; 100 nM, read-out: Inhibition Rate of HDAC3 (%)
  inhibition at 0.1 µM: 95.1 ± 0.1%
HL-60 cells
  IC50: 480 ± 177 nM
HDAC4
  IC50: > 10000 nM
